Source: patent US20100267725A1, “Compounds, Compositions and Methods Comprising 4N-Substituted Triazole Derivatives” (Institute for OneWorld Health, priority 2009, published 2010)

molecular target: T1, CFTR channel (Homo sapiens, UniProt P13569); assay: T84 assay (FLIPR membrane potential dye, forskolin/IBMX-stimulated CFTR channel activity); assay type: cell-based; conditions: Human colonic T84 cells; CFTR stimulated with 10 μM forskolin + 100 μM IBMX
T1 construct: host or cells: Human colonic T84 cells
Experimental: (§1) For example, Human colonic T84 cells can be acquired from the European Collection of Cell Cultures (ECACC) and grown in standard culture conditions as described by the supplier. On the day before assay 25,000 T84 cells per well are plated into standard black walled, clear bottom 384-well assay plates in standard growth medium consisting of DMEM:F12 with 10% FBS and incubated overnight. On the day of the assay the plates are washed using a standard assay buffer (HBSS with 10 mM Hepes) and incubated for 15 minutes in serum free cell culture medium before the addition of a commercially available membrane potential sensitive fluorescent dye (FLIPR Red membrane potential dye, Molecular Devices Corporation). T84 cells are incubated with the FLIPR Red membrane potential dye for 45 minutes in the presence and absence of test compound before being transferred to a commercially available fluorescence imaging plate reader (FLIPR384, Molecular Devices Corporation). Fluorescence levels are monitored continuously every second for 150 seconds; after an initial 10 second baseline, CFTR channel activity is stimulated through the addition of 10 μM forskolin in the presence of 100 μM of the phosphodiesterase inhibitor iso-butyl-methylxanthine (IBMX). Addition of the forskolin leads to the activation of intracellular adenylyl cylase 1, elevating cAMP levels and results in the phosphorylation and opening of CFTR anion channels. CFTR channel opening causes chloride ion efflux and subsequent depolarization of the cells, which is measured by an increase in fluorescence. CFTR inhibitor compounds prevent cell depolarization and the associated increase in fluorescence.
as §1, with “Human colonic” for “For example, Human colonic”, “T84 cells are acquired from” for “T84 cells can be acquired from”, “(ECACC) and are grown in” for “(ECACC) and grown in”

T1 sequence (P13569 whole entry): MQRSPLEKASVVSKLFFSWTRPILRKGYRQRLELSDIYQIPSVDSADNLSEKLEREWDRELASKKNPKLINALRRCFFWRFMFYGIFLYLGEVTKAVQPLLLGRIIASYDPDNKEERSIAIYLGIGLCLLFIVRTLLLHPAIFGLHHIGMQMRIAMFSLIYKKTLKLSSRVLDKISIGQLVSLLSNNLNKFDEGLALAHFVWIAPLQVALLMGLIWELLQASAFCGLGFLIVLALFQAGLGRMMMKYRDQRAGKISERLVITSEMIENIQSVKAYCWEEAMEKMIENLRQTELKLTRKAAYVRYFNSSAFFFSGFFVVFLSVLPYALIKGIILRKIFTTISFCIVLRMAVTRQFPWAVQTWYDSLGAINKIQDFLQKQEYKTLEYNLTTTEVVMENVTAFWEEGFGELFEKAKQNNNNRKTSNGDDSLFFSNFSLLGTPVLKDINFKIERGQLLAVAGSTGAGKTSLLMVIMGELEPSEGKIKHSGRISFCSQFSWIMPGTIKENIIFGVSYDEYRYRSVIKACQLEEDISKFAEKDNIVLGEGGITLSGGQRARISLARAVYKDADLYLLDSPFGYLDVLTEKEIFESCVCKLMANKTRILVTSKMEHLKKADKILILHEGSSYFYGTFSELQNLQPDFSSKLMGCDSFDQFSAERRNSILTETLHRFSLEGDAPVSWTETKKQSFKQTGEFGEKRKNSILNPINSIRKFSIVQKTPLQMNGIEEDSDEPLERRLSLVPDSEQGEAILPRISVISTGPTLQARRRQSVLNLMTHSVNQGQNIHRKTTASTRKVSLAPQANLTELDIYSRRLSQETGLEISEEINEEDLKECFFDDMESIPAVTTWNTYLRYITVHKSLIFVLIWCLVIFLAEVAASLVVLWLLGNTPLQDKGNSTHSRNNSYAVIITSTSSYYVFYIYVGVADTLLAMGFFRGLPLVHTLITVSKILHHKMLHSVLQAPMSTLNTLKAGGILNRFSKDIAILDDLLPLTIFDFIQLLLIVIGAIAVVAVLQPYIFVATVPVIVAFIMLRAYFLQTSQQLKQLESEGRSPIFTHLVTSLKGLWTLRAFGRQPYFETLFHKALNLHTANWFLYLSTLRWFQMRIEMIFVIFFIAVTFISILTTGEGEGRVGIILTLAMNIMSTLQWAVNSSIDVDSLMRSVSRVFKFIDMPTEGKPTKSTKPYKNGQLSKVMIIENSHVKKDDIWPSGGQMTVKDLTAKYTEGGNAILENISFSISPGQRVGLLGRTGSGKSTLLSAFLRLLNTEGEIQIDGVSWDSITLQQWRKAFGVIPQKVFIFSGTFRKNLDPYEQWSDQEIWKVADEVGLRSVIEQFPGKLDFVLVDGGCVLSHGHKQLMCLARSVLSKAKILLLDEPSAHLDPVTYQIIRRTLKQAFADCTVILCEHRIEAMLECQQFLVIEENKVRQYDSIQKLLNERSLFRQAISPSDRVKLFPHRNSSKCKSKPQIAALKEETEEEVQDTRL

Row | SMILES | IC50 [µM]
1 | COc1ccc(-n2c(C(=O)NCc3ccc(Oc4ccccc4)cc3)nnc2-c2cc(Cl)c(O)c(Cl)c2)cn1 [Compound 5, 5-(3,5-dichloro-4-hydroxyphenyl)-4-(6-methoxypyridin-3-yl)-N-(4-phenoxybenzyl)-4H-1,2,4-triazole-3-carboxamide] | 7.74
2 | O=C(NCc1ccc(Oc2ccccc2)cc1)c1nnc(-c2cc(Cl)c(O)c(Cl)c2)n1Cc1ccccn1 [Compound 4, 5-(3,5-dichloro-4-hydroxyphenyl)-N-(4-phenoxybenzyl)-4-(pyridin-2-ylmethyl)-4H-1,2,4-triazole-3-carboxamide] | 12.9
3 | CN(C)c1cccc(Cn2c(C(=O)NCc3ccc(Oc4ccccc4)cc3)nnc2-c2cc(Cl)c(O)c(Cl)c2)c1 [Compound 2, 5-(3,5-dichloro-4-hydroxyphenyl)-4-(3-(dimethylamino)benzyl)-N-(4-phenoxybenzyl)-4H-1,2,4-triazole-3-carboxamide] | 6.69

More lines, in order of falling IC50, values ahead:

Row | IC50 [µM] | SMILES
4 | 12.8 | O=C(NCc1ccc(Oc2ccccc2)cc1)c1nnc(-c2cc(Cl)c(O)c(Cl)c2)n1Cc1ccc(CN2CCOCC2)cc1 [Compound 6, 5-(3,5-dichloro-4-hydroxyphenyl)-4-(4-(morpholinomethyl)benzyl)-N-(4-phenoxybenzyl)-4H-1,2,4-triazole-3-carboxamide]
5 | 7.18 | O=C(NCc1ccc(Oc2ccccc2)cc1)c1nnc(-c2cc(Cl)c(O)c(Cl)c2)n1Cc1cccnc1 [Compound 3, 5-(3,5-Dichloro-4-hydroxyphenyl)-N-(4-phenoxybenzyl)-4-(pyridin-3-ylmethyl)-4H-1,2,4-triazole-3-carboxamide]
6 | 7.14 | O=C(NCc1ccc(Oc2ccccc2)cc1)c1nnc(-c2cc(Cl)c(O)c(Cl)c2)n1Cc1ccccc1 [Compound 1, 4-benzyl-5-(3,5-dichloro-4-hydroxyphenyl)-N-(4-phenoxybenzyl)-4H-1,2,4-triazole-3-carboxamide]
